Assay results published in patent publication US20240180883A1, “TREATMENT OF MIGRAINE” (Allergan Pharmaceuticals International Limited, priority 2020, published 2024).
“Also recorded” adds a separate entry of the source.

Columns and labels:
[1] = Ubrogepant clinical pharmacokinetics summary; type: in vivo, human
Description: Ubrogepant is excreted mainly through the biliary/fecal route, while the renal route is a minor route of elimination.
In clinical studies, ubrogepant was administered without regard to food. […]

[2] = Long-term safety, open-label extension study; type: in vivo, human
Description: Long-term safety was assessed in 813 patients, dosing intermittently for up to 1 year in an open-label extension study. […] Of these 813 patients, 421 patients were exposed to 50 mg or 100 mg for at least 6 months, and 364 patients were exposed to these doses for at least one year, all of whom treated at least two migraine attacks per month, on average. […] The most common adverse reaction resulting in discontinuation in the long-term safety study was nausea.

[3] = Hepatic impairment study: adverse events; type: in vivo, human
Description: Participants were queried regarding any AEs or SAEs at the time of each vital sign assessment, as well as at each visit through to the follow-up visit.
Criteria for potential Hy's Law cases were as follows: AST or ALT≥3×ULN and Total Bilirubin≥2×ULN and Alkaline phosphatase<2×ULN.

CYP3A4 = biological target: T1, CYP3A4 (Homo sapiens, UniProt P08684); assay: Expected interaction with weak or moderate CYP3A4 inducers
T1 construct: mainly eliminated by CYP3A4 metabolism; from tissue; host or cells: in vivo, the patient's own enzyme (the gut wall is mentioned)

P-gp = P-gp (Homo sapiens, UniProt P08183); assay: P-gp transporter substrate in vitro; type: in vitro ADME
adults with migraine = assay: Consistency of treatment, ACHIEVE trials and long-term extension trial; type: in vivo, human
Description: Therapeutic gain (TG) was calculated for the ACHIEVE trial and separately for the first 3 attacks of moderate/severe pain intensity treated in the long term extension trial, using placebo data from ACHIEVE. The TG ratio (TGR) was the TG from the LTE divided by the TG in the ACHIEVE trial multiplied by 100. Following consultation with regulatory agencies, a consistency threshold for the TGR of 50% or greater was used for this analysis.

[4] = single dose [14C]-ubrogepant, healthy male subjects
[5] = Total: participants who took any investigational product
[6] = Total: participants who took any investigative product
[7] = Treatment A: ubrogepant 100 mg single dose, fasted
[8] = Treatment C: 600 mg rifampin co-administered with 100 mg ubrogepant on Day 14
[9] = 100 mg single oral dose, all 28 participants
[10] = 100 mg single oral dose, mild hepatic impairment
[11] = 100 mg single oral dose, moderate hepatic impairment
[12] = 100 mg single oral dose, normal hepatic function
[13] = 100 mg single oral dose, severe hepatic impairment

T1 sequence (P08684 whole entry): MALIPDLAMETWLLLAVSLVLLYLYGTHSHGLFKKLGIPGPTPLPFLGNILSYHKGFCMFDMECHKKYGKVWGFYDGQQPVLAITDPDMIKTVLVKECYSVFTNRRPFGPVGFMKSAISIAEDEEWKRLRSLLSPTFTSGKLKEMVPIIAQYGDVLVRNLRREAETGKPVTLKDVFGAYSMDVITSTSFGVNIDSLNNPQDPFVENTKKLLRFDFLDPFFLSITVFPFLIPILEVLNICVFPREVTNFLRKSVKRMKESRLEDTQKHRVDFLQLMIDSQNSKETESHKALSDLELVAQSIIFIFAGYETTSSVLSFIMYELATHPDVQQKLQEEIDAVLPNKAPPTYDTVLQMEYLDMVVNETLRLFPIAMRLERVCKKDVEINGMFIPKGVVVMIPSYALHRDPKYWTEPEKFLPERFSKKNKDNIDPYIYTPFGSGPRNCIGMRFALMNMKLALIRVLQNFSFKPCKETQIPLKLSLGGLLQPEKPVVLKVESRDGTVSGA
Chain of P-gp (P08183 whole entry): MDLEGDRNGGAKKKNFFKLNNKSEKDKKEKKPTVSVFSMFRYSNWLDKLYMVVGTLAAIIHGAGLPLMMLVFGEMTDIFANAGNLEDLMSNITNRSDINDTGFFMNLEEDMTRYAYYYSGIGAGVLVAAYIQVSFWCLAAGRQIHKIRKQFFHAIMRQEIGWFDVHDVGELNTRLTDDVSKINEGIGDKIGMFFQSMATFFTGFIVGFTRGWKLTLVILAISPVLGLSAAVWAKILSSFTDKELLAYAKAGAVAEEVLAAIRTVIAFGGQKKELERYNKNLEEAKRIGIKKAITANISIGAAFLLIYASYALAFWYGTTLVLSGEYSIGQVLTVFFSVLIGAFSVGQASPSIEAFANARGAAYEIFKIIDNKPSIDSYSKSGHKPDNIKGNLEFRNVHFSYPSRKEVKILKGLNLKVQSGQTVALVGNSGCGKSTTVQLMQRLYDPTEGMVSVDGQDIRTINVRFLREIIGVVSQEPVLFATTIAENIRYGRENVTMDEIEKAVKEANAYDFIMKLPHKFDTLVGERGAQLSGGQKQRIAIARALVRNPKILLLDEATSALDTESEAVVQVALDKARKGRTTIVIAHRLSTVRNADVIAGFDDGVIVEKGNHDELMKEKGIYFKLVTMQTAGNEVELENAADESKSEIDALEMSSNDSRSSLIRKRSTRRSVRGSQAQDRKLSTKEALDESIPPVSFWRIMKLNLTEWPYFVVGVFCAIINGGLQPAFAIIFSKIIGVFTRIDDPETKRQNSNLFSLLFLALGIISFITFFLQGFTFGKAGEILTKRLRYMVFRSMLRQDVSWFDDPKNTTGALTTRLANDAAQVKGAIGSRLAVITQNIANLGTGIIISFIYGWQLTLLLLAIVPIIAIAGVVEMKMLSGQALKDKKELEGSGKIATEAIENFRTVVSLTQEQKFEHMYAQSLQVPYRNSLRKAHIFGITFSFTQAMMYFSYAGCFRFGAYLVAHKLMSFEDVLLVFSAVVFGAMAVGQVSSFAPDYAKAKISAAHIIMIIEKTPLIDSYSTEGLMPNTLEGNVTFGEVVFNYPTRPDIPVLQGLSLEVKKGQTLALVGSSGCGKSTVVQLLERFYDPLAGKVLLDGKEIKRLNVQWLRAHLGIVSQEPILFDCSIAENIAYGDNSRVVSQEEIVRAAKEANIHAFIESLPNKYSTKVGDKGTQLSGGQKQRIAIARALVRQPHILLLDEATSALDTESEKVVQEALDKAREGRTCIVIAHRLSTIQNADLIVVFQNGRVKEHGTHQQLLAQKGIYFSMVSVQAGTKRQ

C[C@@H]1[C@H](c2ccccc2)C[C@H](NC(=O)c2cnc3c(c2)C[C@@]2(C3)C(=O)Nc3ncccc32)C(=O)N1CC(F)(F)F [ubrogepant, (3′S)-N-((3S,5S,6R)-6-methyl-2-oxo-5-phenyl-1-(2,2,2-trifluoroethyl)piperidin-3-yl)-2′-oxo-1′,2′,5,7-etrahydrospiro[cyclopenta[b]pyridine-6,3′-pyrrolo[2,3-b]pyridine]-3-carboxamide]
renal route elimination ([1]; human, in vivo): < 10% | mean apparent oral clearance (CL/F) ([1]; human, in vivo, po): approximately 87 L/hr | half-life ([1]; human, plasma, oral, read-out: elimination half-life): 5 to 7 h | time of peak plasma concentrations ([1]; oral administration): approximately 1.5 hours | dose recovered as unchanged ubrogepant in feces [1, 4]: 42% | dose recovered as unchanged ubrogepant in urine [1, 4]: 6% | mean apparent central volume of distribution (V/L) ([1]; single dose oral administration): approximately 350 L | change in AUC ([1]; with a high-fat meal): no change in AUC | delay of time to maximum plasma concentration ([1]; with a high-fat meal): 2 h | reduction in Cmax ([1]; with a high-fat meal): 22% | participants with headache (Study B: adverse events; Study B, whole trial): 13.3% | Any AE (Study B: adverse events; [5]): 6 (20.0) n (%) | Dry Mouth (Study B: adverse events; [5]): 1 (3.3) n (%) | Flatulence (Study B: adverse events; [5]): 1 (3.3) n (%) | Gastrointestinal Disorders (Study B: adverse events; [5]): 4 (13.3) n (%) | Headache (Study B: adverse events; [5]): 4 (13.3) n (%) | Nausea (Study B: adverse events; [5]): 2 (6.7) n (%) | Nervous System Disorders (Study B: adverse events; [5]): 4 (13.3) n (%) | AEs leading to discontinuation (Study B: adverse events; [6]): 0 n (%) | Deaths (Study B: adverse events; [6]): 0 n (%) | SAEs (Study B: adverse events; [6]): 0 n (%) | TEAEs (Study B: adverse events; [6]): 6 (20.0) n (%) | Treatment related TEAEs (Study B: adverse events; [6]): 6 (20.0) n (%) | AEs leading to discontinuation (Study B: adverse events; [7]): 0 n (%) | Any AE (Study B: adverse events; [7]): 4 (13.3) n (%) | Deaths (Study B: adverse events; [7]): 0 n (%) | Dry Mouth (Study B: adverse events; [7]): 1 (3.3) n (%) | Flatulence (Study B: adverse events; [7]): 1 (3.3) n (%) | Gastrointestinal Disorders (Study B: adverse events; [7]): 2 (6.7) n (%) | Headache (Study B: adverse events; [7]): 2 (6.7) n (%) | Nausea (Study B: adverse events; [7]): 0 n (%) | Nervous System Disorders (Study B: adverse events; [7]): 2 (6.7) n (%) | SAEs (Study B: adverse events; [7]): 0 n (%) | TEAEs (Study B: adverse events; [7]): 4 (13.3) n (%) | Treatment related TEAEs (Study B: adverse events; [7]): 4 (13.3) n (%) | AEs leading to discontinuation (Study B: adverse events; [8]): 0 n (%) | Any AE (Study B: adverse events; [8]): 2 (7.1) n (%) | Deaths (Study B: adverse events; [8]): 0 n (%) | Dry Mouth (Study B: adverse events; [8]): 0 n (%) | Flatulence (Study B: adverse events; [8]): 0 n (%) | Gastrointestinal Disorders (Study B: adverse events; [8]): 2 (7.1) n (%) | Headache (Study B: adverse events; [8]): 1 (3.6) n (%) | Nausea (Study B: adverse events; [8]): 2 (7.1) n (%) | Nervous System Disorders (Study B: adverse events; [8]): 1 (3.6) n (%) | SAEs (Study B: adverse events; [8]): 0 n (%) | TEAEs (Study B: adverse events; [8]): 2 (7.1) n (%) | Treatment related TEAEs (Study B: adverse events; [8]): 2 (7.1) n (%) | safety and tolerability (Study B: adverse events; single oral dose coadministered with multiple doses of rifampin): safe and generally well tolerated; also recorded: safe and generally well-tolerated | patients withdrawn because of an adverse reaction ([2]; intermittent dosing for up to 1 year, 50 mg or 100 mg): 2.5% | most common adverse reaction resulting in discontinuation ([2]; long-term safety study): nausea | changes in laboratory parameters, vital signs, or ECG measurements ([3]; 100 mg single oral dose): no clinically relevant changes in laboratory parameters, vital signs, or ECG measurements | participants with TEAEs, overall [3, 9]: 17.9% | participants with headache, overall [3, 9]: 2 participants | AE leading to study discontinuation [3, 10]: 0 n (%) | Any SAE [3, 10]: 0 n (%) | Any TEAE [3, 10]: 3 (37.5) n (%) | Any treatment-related TEAE [3, 10]: 2 (25.0) n (%) | Deaths [3, 10]: 0 n (%) | Diarrhoea [3, 10]: 1 (12.5) n (%) | Dizziness [3, 10]: 0 n (%) | Dyspepsia [3, 10]: 1 (12.5) n (%) | Gastrointestinal Disorders [3, 10]: 2 (25.0) n (%) | Headache [3, 10]: 1 (12.5) n (%) | Nervous System Disorders [3, 10]: 1 (12.5) n (%) | AE leading to study discontinuation [3, 11]: 0 n (%) | Any SAE [3, 11]: 0 n (%) | Any TEAE [3, 11]: 2 (25.0) n (%) | Any treatment-related TEAE [3, 11]: 2 (25.0) n (%) | Deaths [3, 11]: 0 n (%) | Diarrhoea [3, 11]: 0 n (%) | Dizziness [3, 11]: 1 (12.5) n (%) | Dyspepsia [3, 11]: 0 n (%) | Gastrointestinal Disorders [3, 11]: 0 n (%) | Headache [3, 11]: 1 (12.5) n (%) | Nervous System Disorders [3, 11]: 2 (25.0) n (%) | AE leading to study discontinuation [3, 12]: 0 n (%) | Any SAE [3, 12]: 0 n (%) | Any TEAE [3, 12]: 0 n (%) | Any treatment-related TEAE [3, 12]: 0 n (%) | Deaths [3, 12]: 0 n (%) | Diarrhoea [3, 12]: 0 n (%) | Dizziness [3, 12]: 0 n (%) | Dyspepsia [3, 12]: 0 n (%) | Gastrointestinal Disorders [3, 12]: 0 n (%) | Headache [3, 12]: 0 n (%) | Nervous System Disorders [3, 12]: 0 n (%) | AE leading to study discontinuation [3, 13]: 0 n (%) | Any SAE [3, 13]: 0 n (%) | Any TEAE [3, 13]: 0 n (%) | Any treatment-related TEAE [3, 13]: 0 n (%) | Deaths [3, 13]: 0 n (%) | Diarrhoea [3, 13]: 0 n (%) | Dizziness [3, 13]: 0 n (%) | Dyspepsia [3, 13]: 0 n (%) | Gastrointestinal Disorders [3, 13]: 0 n (%) | Headache [3, 13]: 0 n (%) | Nervous System Disorders [3, 13]: 0 n (%) | tolerability ([3]; healthy participants and participants with mild to severe hepatic impairment): well-tolerated | reduction of ubrogepant exposure (CYP3A4; moderate CYP3A4 inducers): 50-80% | reduction of ubrogepant exposure (CYP3A4; weak CYP3A4 inducers): 20-50% | substrate of P-gp transporter (P-gp): substrate | rate of 2-hour pain relief (adults with migraine; ACHIEVE ubrogepant 100 mg treated attacks): 61.4% | rate of 2 hour pain freedom (adults with migraine; ACHIEVE ubrogepant 100 mg-treated attacks): 21.2% | rate of 2 hour pain freedom (adults with migraine; LTE trial, 100 mg, mean across first 3 attacks): 21.6% | rate of 2-hour pain relief (adults with migraine; LTE trial, 100 mg, mean across first three attacks): 68.0%
